In patent US20230017786A1, “DEXTR[…] A DISEASE-MODIFYING TREATMENT FOR NEUROPSYCHIATRIC DISORDERS AND DISEASES” (priority 2020, published 2023):
Several values for one entry are separate records, joined by “and”; a condition that tells them apart may be missing. Equal entries are not always repeated.

How the values were obtained:
5-HT2C receptor = molecular target: T1, 5-HT2C receptor (Homo sapiens, UniProt P28335); conditions: agonist; Rickli et al., 2018; cited from earlier work
T1 sequence (P28335 33-458): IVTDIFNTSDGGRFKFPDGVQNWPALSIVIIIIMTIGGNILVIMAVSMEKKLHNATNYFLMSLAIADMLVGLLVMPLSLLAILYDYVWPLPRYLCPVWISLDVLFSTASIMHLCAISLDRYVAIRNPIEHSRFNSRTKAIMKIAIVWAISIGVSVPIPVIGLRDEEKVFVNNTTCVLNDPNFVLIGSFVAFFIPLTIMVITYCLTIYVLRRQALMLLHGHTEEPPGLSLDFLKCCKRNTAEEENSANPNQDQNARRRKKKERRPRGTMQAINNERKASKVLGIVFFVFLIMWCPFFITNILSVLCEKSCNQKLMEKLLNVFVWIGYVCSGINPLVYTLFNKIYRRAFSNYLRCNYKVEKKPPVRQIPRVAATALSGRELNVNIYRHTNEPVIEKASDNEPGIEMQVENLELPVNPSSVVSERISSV

[1] = molecular target: T2, human NMDA receptor GluN1-GluN2A (Homo sapiens, UniProt Q05586+Q12879); assay: FLIPR calcium assay, quinolinic acid, gentamicin, dextromethadone (Example 5 Part II), GluN1-GluN2A-CHO; assay type: cell-based; set-up: calcium response (mean±SEM): unit not given here; conditions: 10 μM glycine; for calcium response (mean±SEM): GluN2A, n=42
T2 construct: expressed in transfected cells; host or cells: CHO
Outline: (§1)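 CHO lines expressing diheteromeric human GluN1/GluN2A–D, loaded 1 h with Fluo-4, tested by FLIPR for intracellular calcium with 10 μM glycine present. Quinolinic acid, gentamicin and test items were run as concentration-response curves, alone or combined. EC50 obtained from a four-parameter Hill fit.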

[2] = molecular target: human GluN1-GluN2C NMDA receptor (Homo sapiens, UniProt Q05586+Q14957); assay: Manual patch clamp trapping assay, hGluN1/hGluN2C-CHO cells; conditions: test item 10 μM
[3] = molecular target: T3, recombinant human NMDAR GluN1 plus GluN2A (Homo sapiens, UniProt Q05586+Q12879); assay: FLIPR calcium assay, gentamicin as PAM (Example 5 Part I), GluN2A cell line; assay type: cell-based; conditions: 10 μM test item; dextromethadone in presence and absence of 10 μM gentamicin
T3 construct: expressed in transfected cells; host or cells: CHO
Description: (§2) A FLIPR calcium assay was used to profile gentamicin using stable cell lines expressing diheteromeric recombinant human NMDARs, containing GluN1 plus one amongst GluN2A, GluN2B, GluN2C or GluN2D subunit.

[4] = molecular target: T4, recombinant human NMDAR GluN1 plus GluN2D (Homo sapiens, UniProt O15399+Q05586); assay: FLIPR calcium assay, gentamicin as PAM (Example 5 Part I), GluN2D cell line; assay type: cell-based; conditions: 10 μM test item; dextromethadone in presence and absence of 10 μM gentamicin
T4 construct: expressed in transfected cells; host or cells: CHO
Description: as §2

[5] = molecular target: T5, human NMDA receptor GluN1-GluN2D (Homo sapiens, UniProt O15399+Q05586); assay: FLIPR calcium assay, test item effect on L-glutamate CRC, GluN1-GluN2D-CHO; assay type: cell-based
T5 construct: expressed in transfected cells; host or cells: CHO

GluN1/GluN2D receptor = molecular target: T6, GluN1/GluN2D receptor (Homo sapiens, UniProt O15399+Q05586); assay: Automated patch clamp (QPatch HTX) in presence of 1 mM extracellular magnesium; assay type: cell-based; conditions: 10 μM dextromethadone, 1 mM Mg2+
T6 construct: expressed in transfected cells; host or cells: CHO
Procedure: Automated patch clamp experiments were performed in QPatch HTX (Sophion Bioscience A/S, Ballerup, Denmark) using CHO cells stably expressing recombinant diheteromeric human NMDAR. Cells were clamped at −80 mV holding potential in presence of 1 mM extracellular magnesium. Voltage protocol included a depolarizing 2 s step pulse to +60 mV, to check quality of the seal and cell NMDAR expression level, followed by a 2 s ramp back to holding potential.

[6] = molecular target: T5, human NMDA receptor GluN1-GluN2D; assay: FLIPR calcium assay, quinolinic acid, gentamicin, dextromethadone (Example 5 Part II), GluN1-GluN2D-CHO; assay type: cell-based; conditions: 10 μM glycine; for calcium response (mean±SEM): GluN2D, n=42
Outline: as §1

[7] = 0.04 μM L-Glu + 100 μM QA + 10 μM DXT
[8] = 0.04 μM L-Glu + 1000 μM QA + 10 μM DXT
[9] = 0.2 μM L-Glu + 100 μM QA + 10 μM DXT
[10] = 0.2 μM L-Glu + 1000 μM QA + 10 μM DXT
[11] = 1000 μM QA + 10 μg/ml GENT + 10 μM DXT
[12] = Table 41: 0.04 μM L-Glu + 10 μM DXT
[13] = Table 43: 0.2 μM L-Glu + 10 μM DXT

T3 sequence (Q12879 23-1464, other chains not shown): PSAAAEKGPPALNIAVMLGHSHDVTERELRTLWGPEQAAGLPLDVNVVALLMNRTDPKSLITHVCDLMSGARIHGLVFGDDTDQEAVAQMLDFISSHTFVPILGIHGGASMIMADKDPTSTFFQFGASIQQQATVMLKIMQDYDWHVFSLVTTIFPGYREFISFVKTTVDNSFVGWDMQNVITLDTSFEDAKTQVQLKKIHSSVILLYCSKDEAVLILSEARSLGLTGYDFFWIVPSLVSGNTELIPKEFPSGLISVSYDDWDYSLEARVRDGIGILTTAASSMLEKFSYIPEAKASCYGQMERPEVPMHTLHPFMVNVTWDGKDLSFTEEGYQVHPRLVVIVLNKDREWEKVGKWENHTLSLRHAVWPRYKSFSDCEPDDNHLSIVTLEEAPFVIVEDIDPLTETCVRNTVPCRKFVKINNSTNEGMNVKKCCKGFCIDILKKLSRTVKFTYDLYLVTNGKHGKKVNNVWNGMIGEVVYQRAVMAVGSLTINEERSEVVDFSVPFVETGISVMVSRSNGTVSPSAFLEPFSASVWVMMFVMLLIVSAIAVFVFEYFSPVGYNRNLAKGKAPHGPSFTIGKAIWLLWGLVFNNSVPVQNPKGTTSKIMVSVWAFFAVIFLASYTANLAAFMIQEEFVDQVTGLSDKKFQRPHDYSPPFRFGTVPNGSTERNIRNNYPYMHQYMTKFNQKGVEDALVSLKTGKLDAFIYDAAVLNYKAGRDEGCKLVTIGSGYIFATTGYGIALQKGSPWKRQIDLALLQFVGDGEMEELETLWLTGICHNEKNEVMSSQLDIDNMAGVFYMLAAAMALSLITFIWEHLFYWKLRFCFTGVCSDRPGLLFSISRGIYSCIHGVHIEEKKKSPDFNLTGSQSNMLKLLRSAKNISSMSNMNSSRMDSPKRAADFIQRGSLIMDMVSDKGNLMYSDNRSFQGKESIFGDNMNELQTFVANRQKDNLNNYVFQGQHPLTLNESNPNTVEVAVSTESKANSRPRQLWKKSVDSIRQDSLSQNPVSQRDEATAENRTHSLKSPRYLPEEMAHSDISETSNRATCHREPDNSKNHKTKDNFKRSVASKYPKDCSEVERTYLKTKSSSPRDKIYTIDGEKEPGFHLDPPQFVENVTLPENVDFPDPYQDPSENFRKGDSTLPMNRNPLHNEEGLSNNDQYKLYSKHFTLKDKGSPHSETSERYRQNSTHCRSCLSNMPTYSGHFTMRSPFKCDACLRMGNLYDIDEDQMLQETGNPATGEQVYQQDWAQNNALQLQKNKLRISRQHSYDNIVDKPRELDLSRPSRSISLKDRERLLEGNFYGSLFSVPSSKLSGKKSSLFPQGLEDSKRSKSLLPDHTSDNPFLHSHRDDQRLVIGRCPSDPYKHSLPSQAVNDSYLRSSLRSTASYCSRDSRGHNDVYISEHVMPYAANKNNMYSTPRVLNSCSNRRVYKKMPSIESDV
T2 sequence (Q12879 23-1464, other chains not shown): as above
T4 sequence (O15399 28-1336, other chains not shown): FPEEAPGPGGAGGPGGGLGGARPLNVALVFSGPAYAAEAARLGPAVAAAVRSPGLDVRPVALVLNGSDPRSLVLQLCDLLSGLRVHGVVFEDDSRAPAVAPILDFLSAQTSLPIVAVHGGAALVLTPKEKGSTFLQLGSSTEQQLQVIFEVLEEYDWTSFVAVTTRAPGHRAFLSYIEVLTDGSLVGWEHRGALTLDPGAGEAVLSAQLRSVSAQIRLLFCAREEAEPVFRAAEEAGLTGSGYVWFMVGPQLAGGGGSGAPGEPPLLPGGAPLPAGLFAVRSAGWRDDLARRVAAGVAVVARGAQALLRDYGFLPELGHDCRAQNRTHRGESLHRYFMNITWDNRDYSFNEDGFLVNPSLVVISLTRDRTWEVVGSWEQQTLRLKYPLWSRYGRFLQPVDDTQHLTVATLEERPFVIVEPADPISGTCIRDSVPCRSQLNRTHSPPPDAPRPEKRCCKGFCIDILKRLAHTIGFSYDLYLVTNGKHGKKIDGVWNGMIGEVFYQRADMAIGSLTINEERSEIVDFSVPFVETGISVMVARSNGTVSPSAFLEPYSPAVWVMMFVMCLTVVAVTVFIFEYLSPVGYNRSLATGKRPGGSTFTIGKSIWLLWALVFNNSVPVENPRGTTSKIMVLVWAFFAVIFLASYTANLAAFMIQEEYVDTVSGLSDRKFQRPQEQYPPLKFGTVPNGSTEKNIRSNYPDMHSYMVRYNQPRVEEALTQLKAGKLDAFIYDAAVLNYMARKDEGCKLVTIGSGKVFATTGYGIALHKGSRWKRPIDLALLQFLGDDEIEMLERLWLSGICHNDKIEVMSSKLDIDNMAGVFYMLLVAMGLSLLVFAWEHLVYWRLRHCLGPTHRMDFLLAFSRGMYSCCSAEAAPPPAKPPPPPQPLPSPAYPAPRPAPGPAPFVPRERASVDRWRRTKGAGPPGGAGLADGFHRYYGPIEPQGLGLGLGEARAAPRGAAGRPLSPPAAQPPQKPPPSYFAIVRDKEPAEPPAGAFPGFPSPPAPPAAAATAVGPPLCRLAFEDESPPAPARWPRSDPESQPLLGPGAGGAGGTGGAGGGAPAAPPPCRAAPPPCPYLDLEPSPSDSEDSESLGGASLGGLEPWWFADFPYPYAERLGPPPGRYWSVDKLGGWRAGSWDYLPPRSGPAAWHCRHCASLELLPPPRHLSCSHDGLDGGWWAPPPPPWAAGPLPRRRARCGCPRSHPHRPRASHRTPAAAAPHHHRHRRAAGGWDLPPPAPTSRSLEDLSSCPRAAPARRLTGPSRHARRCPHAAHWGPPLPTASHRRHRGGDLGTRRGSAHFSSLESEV
T5 sequence (O15399 28-1336, other chains not shown): as above
T6 sequence (O15399 28-1336, other chains not shown): as above

## CCC(=O)C(C[C@H](C)N(C)C)(c1ccccc1)c1ccccc1 [Dextromethadone, dextromethadone]
5-HT2C receptor
  Ki: 1900 nM
[1]; 0.04 μM L-Glu + 10 μM DXT
  calcium response (mean±SEM): 0.5 ± 0.2
[1]; [7]
  calcium response (mean±SEM): 3.4 ± 0.2
[1]; [8]
  calcium response (mean±SEM): 32 ± 0.7
[1]; 0.2 μM L-Glu + 10 μM DXT
  calcium response (mean±SEM): 14 ± 0.4
[1]; [9]
  calcium response (mean±SEM): 15 ± 0.5
[1]; [10]
  calcium response (mean±SEM): 35 ± 1.0
[1]; 100 μM QA + 10 μM DXT
  % effect on calcium entry, 100 QA + 10 DXT: −0.2 ± 0.2%
[1]; 1000 μM QA + 10 μM DXT
  calcium response (mean±SEM): 34 ± 0.6
  % effect on calcium entry, 1000 QA + 10 DXT: 34 ± 0.6%
[1]; [11]
  calcium response (mean±SEM): 34 ± 0.6
[1]; [12]
  calcium response (mean±SEM): 0.5 ± 0.2
[1]; [13]
  calcium response (mean±SEM): 14 ± 0.4
[2]
  Block trapped (BT), trapping: 85.9% and 85.9%±1.9%
[2]; listed as dextromethadone
  Block (B) of 10/10 μM L-glutamate/glycine-evoked currents: 83.8%±1.2% and 83.8%
  Block trapped (BT), trapping: 85.9% and 85.9%±1.9%
  Residual block (BR): 71.8%±1.1% and 71.8%
[3]
  calcium entry induced by 0.04 μM L-glutamate: significantly reduced
  calcium entry induced by 0.2 μM L-glutamate: significantly reduced
  calcium entry induced by 10 μM L-glutamate: significantly reduced
[4]
  calcium entry induced by 0.04 μM L-glutamate: significantly reduced
  calcium entry induced by 0.2 μM L-glutamate: significantly reduced
  calcium entry induced by 10 μM L-glutamate: significantly reduced
[5]; operational analysis for allosteric modulators
  α, estimated cooperativity term: 0.22
[5]; with test item 49 nM
  L-glutamate CRC HillSlope: 1.3
  L-glutamate CRC LogEC50: −7.5
[5]; with test item 195 nM
  L-glutamate CRC HillSlope: 1.3
  L-glutamate CRC LogEC50: −7.5
[5]; with test item 781 nM
  L-glutamate CRC HillSlope: 1.7
  L-glutamate CRC LogEC50: −7.5
[5]; with test item 3.1 μM
  L-glutamate CRC HillSlope: 1.5
  L-glutamate CRC LogEC50: −7.4
[5]; with test item 12.5 μM
  L-glutamate CRC HillSlope: 1.1
  L-glutamate CRC LogEC50: −7.1
[5]; with test item 50 μM
  L-glutamate CRC LogEC50: −6.9
GluN1/GluN2D receptor; 1 μM L-glutamate, −80 mV, control cells 102.5±[…]
  residual current, % of pre-application level: 62.5±4.1%
GluN1/GluN2D receptor; −30 mV to −80 mV
  10 μM or 1 μM L-glutamate elicited current: significantly reduced
[6]; 0.04 μM L-Glu + 10 μM DXT
  calcium response (mean±SEM): 3.5 ± 0.2
[6]; [7]
  calcium response (mean±SEM): 7.1 ± 0.4
[6]; [8]
  calcium response (mean±SEM): 33 ± 1.6
[6]; 0.2 μM L-Glu + 10 μM DXT
  calcium response (mean±SEM): 71 ± 2.3
[6]; [9]
  calcium response (mean±SEM): 69 ± 1.4
[6]; [10]
  calcium response (mean±SEM): 43 ± 1.1
[6]; 100 μM QA + 10 μM DXT
  % effect on calcium entry, 100 QA + 10 DXT: −2.4 ± 0.2%
[6]; 1000 μM QA + 10 μM DXT
  calcium response (mean±SEM): 32 ± 0.9
  % effect on calcium entry, 1000 QA + 10 DXT: 32 ± 0.9%
[6]; [11]
  calcium response (mean±SEM): 36 ± 0.8
[6]; [12]
  calcium response (mean±SEM): 3.5 ± 0.2
[6]; [13]
  calcium response (mean±SEM): 71 ± 2.3
